The record followed here is patent US20190076434A1, “METHODS OF TREATING PERIPHERAL VASCULAR DISEASES, INCLUDING SYSTEMIC SCLEROSIS VASCULOPATHY” (UNIVERSITY OF UTAH RESEARCH FOUNDATION, priority 2016, published 2019).

SMILES strings stand for the structures.

For data set [1], the system named is patients with SSc.
Data set [2] relates to patients with SSc. Nature of the data set: Example 2: brachial artery flow-mediated dilation (FMD), double-blind randomized crossover, BH4 vs placebo. The class given is in vivo, human. The text has this:
Methods: Subjects. Eleven subjects with SSc (3 men and 8 women) were recruited from the University of Utah SSc clinic to participate in the current study. All subjects had either a diagnosis of SSc as accepted by the American College of Rheumatology or early SSc as described by Leroy and […]. All subjects gave their written informed consent before participation. Protocol approval and written informed consent were obtained, according to the University of Utah and Salt Lake City Veterans Affairs Medical Center (VAMC) Institutional Review Board, in accordance with the principles outlined in the Declaration of Helsinki. All data collection took place in the Utah Vascular Research Laboratory at the Salt Lake City VAMC Geriatric Research, Education, and Clinical Center. Experimental Design. […] Subjects consumed a standardized breakfast and were administered oral BH4 (10 mg/kg) or placebo five hours prior arrival at the laboratory. Measurements were taken at the same time of day to eliminate any diurnal effects and after having abstained from food (not including the standardized breakfast), alcohol, caffeine, cardiovascular-acting medications, and exercise for ≥12 hours. […] Heart rate was monitored from a standard 3-lead ECG. […] FMD was quantified as the maximal change in BA diameter after cuff release. NMD was quantified as the maximal change in BA diameter after sublingual nitroglycerin supplementation. […] Shear rate was calculated according to the equation: shear rate (s-1)=(Vmean·8)/vessel diameter. Blood flow was calculated as per the equation: blood flow (mL·min)=(blood velocity×π)×(vessel diameter/2)2×(60). Cumulative shear rate cumulative area under the curve at the time of peak BA vasodilation was integrated with the trapezoidal rule and calculated as per the following equation: τ([…]]). Forearm vascular conductance was calculated according to the equation: […]. Forearm vascular resistance was calculated according to the equation: […]. […] Paired, one-tailed t-tests were used to identify significant changes in measured variables between placebo and BH4 conditions. […]

The subject of data set [3] is patients with SSc. The data set can be described thus: Example 2: seated brachial artery blood pressure and mean arterial pressure, BH4 vs placebo. The class given is in vivo, human. As to conditions: five hours after oral BH4 10 mg/kg. As to the method: Experimental Design. A controlled, randomized, double-blind, crossover experimental design with two conditions, BH4 and placebo, was used, with a washout period of ≥5 days between conditions. Subjects consumed a standardized breakfast and were administered oral BH4 (10 mg/kg) or placebo five hours prior arrival at the laboratory. Measurements were taken at the same time of day to eliminate any diurnal effects and after having abstained from food (not including the standardized breakfast), alcohol, caffeine, cardiovascular-acting medications, and exercise for ≥12 hours. In premenopausal women, measurements were performed during the early follicular phase of the menstrual cycle.
Blood Pressure. Seated BA blood pressure measurements were made with a semi-automated BP device (Tango+, SunTech, Morrisville, N.C.) in triplicate after 5 min in the upright seated position with the arm at heart level and under quiet, comfortable, ambient (˜22° C.) laboratory conditions. Mean arterial pressure (MAP) was calculated using the equation: ⅓ systolic blood pressure+⅔ diastolic blood pressure.
Statistics. Statistics were performed using SPSS software (IBM, Chicago, Ill.). Paired, one-tailed t-tests were used to identify significant changes in measured variables between placebo and BH4 conditions. Statistical significance was set at P<0.05 for all analyses. Unless indicated otherwise, data are presented as Means±SEM.

[4] abbreviates: one SSc subject, BH4 vs placebo, data not shown.
[5] abbreviates: 11 SSc patients, five hours after oral BH4 10 mg/kg, P<0.05.

`C[C@H](O)[C@H](O)[C@H]1CNc2nc(N)[nH]c(=O)c2N1` [BH4, tetrahydrobiopterin]: the blood pressure in the data set on patients with SSc [1] (human, in vivo) was 125/77. Further, the “FMD, increase compared to placebo” value in the data set on patients with SSc [1] (one SSc subject, BH4 vs placebo, FIG. 7A) is reported as 73%. For the same compound, the “peak hyperemia, increase compared to placebo” value in the data set on patients with SSc [1] (one SSc subject, BH4 vs placebo, FIG. 7B) is given as 63%. In addition, the “area under the curve for hyperemia, increase compared to placebo” value with patients with SSc [1] (one SSc subject, BH4 vs placebo, FIG. 7C) is ~160%. Also, in the data set with patients with SSc [1] (setting [4]), the “resting blood flow in the forearm, increase compared to placebo” value is given as ~20% and the “resting blood flow in the leg, increase compared to placebo” value was determined as 34%. In addition, in the data set on patients with SSc [2] (setting [5]), the “absolute FMD, improvement vs. placebo” value is listed as 44% and the “percentage FMD, improvement vs. placebo” value was 48%. Besides, in the data set with patients with SSc [2] (second study, placebo FMD 3.2%, corresponds to highest tertile of FMD), the “FMD value in the BH4 condition” value was 5.6%. Besides, in the data set on patients with SSc [3] (Means ± SEM, P>0.05 vs placebo), the “casual seated diastolic blood pressure” value is 68±2 mmHg and the “casual seated systolic blood pressure” value is 109±5 mmHg. Besides, in the data set on patients with SSc [3] (P<0.05 vs placebo), the “MAP, difference in the BH4 condition compared to placebo” value is recorded as ~−2 mmHg.
